# Experimental data published in patent publication US12421211B2, “Heterocyclic compounds” (Hoffmann-La Roche Inc., priority 2021, dated 2025).
# Where a name gives a salt, the structure may show the parent alone.
# Tested on: Acinetobacter baumannii ATCC17961
# Assay: Antimicrobial susceptibility testing: 90% growth inhibitory concentration (IC90) determination
# Format: cell-based
# Conditions: Acinetobacter baumannii, ATCC17961, 16 h, 90% growth inhibitory concentration, Acinetobacter baumannii ATCC17961, Iso-Sensitest broth, OD 600 nm over 16 h; read-out: ATCC 17961 IC90
# In short: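 Growth inhibition derived in log phase from OD600 kinetics (every 20 minutes, 16h, 35±2° C) of ATCC17961 in Iso-Sensitest medium, inoculum ~5×10^5 CFU/ml. Compounds tested as twofold series, 10 points (e.g. 50 to 0.097 μM final); IC90 and IC50 reported.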
row,IC90 [nM],Compound
1,1200,"COCCn1cc(-c2ccc(-c3cnc(C(=O)Nc4ccc(C(=O)N5CCN(C(=O)C6CC[N+](C)(C)CC6)CC5)c(Cl)c4)n3C)c(F)c2F)c(CO)n1 [Example F25, N-[3-chloro-4-[4-(1,1-dimethylpiperidin-1-ium-4-carbonyl)piperazine-1-carbonyl]phenyl]-5-[2,3-difluoro-4-[3-(hydroxymethyl)-1-(2-methoxyethyl)pyrazol-4-yl]phenyl]-1-methyl-imidazole-2-carboxamide; formate]"
2,1400,"COCCn1cc(-c2ccc(-c3cnc(C(=O)Nc4ccc(C(=O)N5CCN(C(=O)C6CC[N+](C)(C)CC6)CC5)c(Cl)c4)n3C)c(F)c2F)c(N)n1 [Example F26, 5-[4-[3-amino-1-(2-methoxyethyl)pyrazol-4-yl]-2,3-difluoro-phenyl]-N-[3-chloro-4-[4-(1,1-dimethylpiperidin-1-ium-4-carbonyl)piperazine-1-carbonyl]phenyl]-1-methyl-imidazole-2-carboxamide; formate]"
3,400,"Cn1c(-c2ccc(-c3c[nH]nc3-c3ccccc3)c(F)c2F)cnc1C(=O)Nc1ccc(C(=O)N2CCN(C(=O)C3CC[N+](C)(C)CC3)CC2)c(Cl)c1 [Example F27, N-[3-chloro-4-[4-(1,1-dimethylpiperidin-1-ium-4-carbonyl)piperazine-1-carbonyl]phenyl]-5-[2,3-difluoro-4-(3-phenyl-1H-pyrazol-4-yl)phenyl]-1-methyl-imidazole-2-carboxamide; formate]"
4,270,"Cn1c(-c2ccc(-c3cnn4c3CCC4)c(F)c2F)cnc1C(=O)Nc1ccc(C(=O)N2CCN(C(=O)C3CC[N+](C)(C)CC3)CC2)c(Cl)c1 [Example F28, N-[3-chloro-4-[4-(1,1-dimethylpiperidin-1-ium-4-carbonyl)piperazine-1-carbonyl]phenyl]-5-[4-(5,6-dihydro-4H-pyrrolo[1,2-b]pyrazol-3-yl)-2,3-difluoro-phenyl]-1-methyl-imidazole-2-carboxamide; formate]"
5,67,"COCCn1ncc(-c2ccc(-c3cnc(C(=O)Nc4ccc(C(=O)N5CCN(C(=O)C6CC[N+](C)(C)CC6)CC5)c(Cl)c4)n3C)c(F)c2F)c1Cl [Example F31, N-[3-chloro-4-[4-(1,1-dimethylpiperidin-1-ium-4-carbonyl)piperazine-1-carbonyl]phenyl]-5-[4-[5-chloro-1-(2-methoxyethyl)pyrazol-4-yl]-2,3-difluoro-phenyl]-1-methyl-imidazole-2-carboxamide; formate]"
6,580,"Cn1c(-c2ccc(-c3cn(CCS(C)(=O)=O)nc3C(F)(F)F)c(F)c2F)cnc1C(=O)Nc1ccc(C(=O)N2CCN(C(=O)C3CC[N+](C)(C)CC3)CC2)c(Cl)c1 [Example F32, N-[3-chloro-4-[4-(1,1-dimethylpiperidin-1-ium-4-carbonyl)piperazine-1-carbonyl]phenyl]-5-[2,3-difluoro-4-[1-(2-methylsulfonylethyl)-3-(trifluoro-methyl)pyrazol-4-yl]phenyl]-1-methyl-imidazole-2-carboxamide; formate]"
7,360,"CC(O)Cn1cc(-c2ccc(-c3cnc(C(=O)Nc4ccc(C(=O)N5CCN(C(=O)C6CC[N+](C)(C)CC6)CC5)c(Cl)c4)n3C)c(F)c2F)c(C(F)(F)F)n1 (stereo not shown) [Example F33, N-[3-chloro-4-[4-(1,1-dimethylpiperidin-1-ium-4-carbonyl)piperazine-1-carbonyl]phenyl]-5-[2,3-difluoro-4-[1-(2-hydroxypropyl)-3-(trifluoromethyl)pyrazol-4-yl]phenyl]-1-methyl-imidazole-2-carboxamide; formate]"
8,230,"Cn1c(-c2ccc(-c3cn(CCCC(N)=O)nc3C(F)(F)F)c(F)c2F)cnc1C(=O)Nc1ccc(C(=O)N2CCN(C(=O)C3CC[N+](C)(C)CC3)CC2)c(Cl)c1 [Example F34, 5-[4-[1-(4-amino-4-oxo-butyl)-3-(trifluoro-methyl)pyrazol-4-yl]-2,3-difluoro-phenyl]-N-[3-chloro-4-[4-(1,1-dimethylpiperidin-1-ium-4-carbonyl)piperazine-1-carbonyl]phenyl]-1-methyl-imidazole-2-carboxamide; formate]"
9,580,"COCCn1cc(-c2ccc(-c3cnc(C(=O)Nc4ccc(C(=O)N5CCN(C(=O)C6CC[N+](C)(C)CC6)CC5)c(Cl)c4)n3C)c(F)c2F)c(C(F)(F)F)n1 [Example F36, N-[3-chloro-4-[4-(1,1-dimethylpiperidin-1-ium-4-carbonyl)piperazine-1-carbonyl]phenyl]-5-[2,3-difluoro-4-[1-(2-methoxyethyl)-3-(trifluoromethyl)pyrazol-4-yl]phenyl]-1-methyl-imidazole-2-carboxamide; formate]"
10,690,"Cn1c(-c2ccc(-c3cnn(CCN4CCOCC4)c3C(F)(F)F)c(F)c2F)cnc1C(=O)Nc1ccc(C(=O)N2CCN(C(=O)C3CC[N+](C)(C)CC3)CC2)c(Cl)c1 [Example F37, N-[3-chloro-4-[4-(1,1-dimethylpiperidin-1-ium-4-carbonyl)piperazine-1-carbonyl]phenyl]-5-[2,3-difluoro-4-[1-(2-morpholinoethyl)-5-(trifluoromethyl)pyrazol-4-yl]phenyl]-1-methyl-imidazole-2-carboxamide; formate]"
11,760,"COCCCn1cc(-c2ccc(-c3cnc(C(=O)Nc4ccc(C(=O)N5CCN(C(=O)C6CC[N+](C)(C)CC6)CC5)c(Cl)c4)n3C)c(F)c2F)c(C(F)(F)F)n1 [Example F38, N-[3-chloro-4-[4-(1,1-dimethylpiperidin-1-ium-4-carbonyl)piperazine-1-carbonyl]phenyl]-5-[2,3-difluoro-4-[1-(3-methoxypropyl)-3-(trifluoromethyl)pyrazol-4-yl]phenyl]-1-methyl-imidazole-2-carboxamide; formate]"
12,340,"Cc1nn(CC2CCOCC2)cc1-c1ccc(-c2cnc(C(=O)Nc3ccc(C(=O)N4CCN(C(=O)C5CC[N+](C)(C)CC5)CC4)c(Cl)c3)n2C)c(F)c1F [Example F39, N-[3-chloro-4-[4-(1,1-dimethylpiperidin-1-ium-4-carbonyl)piperazine-1-carbonyl]phenyl]-5-[2,3-difluoro-4-[3-methyl-1-(tetrahydropyran-4-ylmethyl)pyrazol-4-yl]phenyl]-1-methyl-imidazole-2-carboxamide; formate]"
13,610,"Cc1nn(-c2ccc(N)cn2)cc1-c1ccc(-c2cnc(C(=O)Nc3ccc(C(=O)N4CCN(C(=O)C5CC[N+](C)(C)CC5)CC4)c(Cl)c3)n2C)c(F)c1F [Example F40, 5-[4-[1-(5-amino-2-pyridyl)-3-methyl-pyrazol-4-yl]-2,3-difluoro-phenyl]-N-[3-chloro-4-[4-(1,1-dimethylpiperidin-1-ium-4-carbonyl)piperazine-1-carbonyl]phenyl]-1-methyl-imidazole-2-carboxamide; chloride]"
14,150,"Cc1nn(Cc2ccccn2)cc1-c1ccc(-c2cnc(C(=O)Nc3ccc(C(=O)N4CCN(C(=O)C5CC[N+](C)(C)CC5)CC4)c(Cl)c3)n2C)c(F)c1F [Example F41, N-[3-chloro-4-[4-(1,1-dimethylpiperidin-1-ium-4-carbonyl)piperazine-1-carbonyl]phenyl]-5-[2,3-difluoro-4-[3-methyl-1-(2-pyridylmethyl)pyrazol-4-yl]phenyl]-1-methyl-imidazole-2-carboxamide; formate]"
15,210,"Cc1nn(-c2cn[nH]c2)cc1-c1ccc(-c2cnc(C(=O)Nc3ccc(C(=O)N4CCN(C(=O)C5CC[N+](C)(C)CC5)CC4)c(Cl)c3)n2C)c(F)c1F [Example F42, N-[3-chloro-4-[4-(1,1-dimethylpiperidin-1-ium-4-carbonyl)piperazine-1-carbonyl]phenyl]-5-[2,3-difluoro-4-[3-methyl-1-(1H-pyrazol-4-yl)pyrazol-4-yl]phenyl]-1-methyl-imidazole-2-carboxamide; formate]"
16,570,"Cc1nn(Cc2ccc(N)cn2)cc1-c1ccc(-c2cnc(C(=O)Nc3ccc(C(=O)N4CCN(C(=O)C5CC[N+](C)(C)CC5)CC4)c(Cl)c3)n2C)c(F)c1F [Example F43, 5-[4-[1-[(5-amino-2-pyridyl)methyl]-3-methyl-pyrazol-4-yl]-2,3-difluoro-phenyl]-N-[3-chloro-4-[4-(1,1-dimethylpiperidin-1-ium-4-carbonyl)piperazine-1-carbonyl]phenyl]-1-methyl-imidazole-2-carboxamide; chloride]"
17,730,"Cn1nccc1-c1n[nH]cc1-c1ccc(-c2cnc(C(=O)Nc3ccc(C(=O)N4CCN(C(=O)C5CC[N+](C)(C)CC5)CC4)c(Cl)c3)n2C)c(F)c1F [Example F44, N-[3-chloro-4-[4-(1,1-dimethylpiperidin-1-ium-4-carbonyl)piperazine-1-carbonyl]phenyl]-5-[2,3-difluoro-4-[3-(2-methylpyrazol-3-yl)-1H-pyrazol-4-yl]phenyl]-1-methyl-imidazole-2-carboxamide; formate]"
18,310,"Cn1c(-c2ccc(-c3c[nH]nc3-c3cccc(F)c3)c(F)c2F)cnc1C(=O)Nc1ccc(C(=O)N2CCN(C(=O)C3CC[N+](C)(C)CC3)CC2)c(Cl)c1 [Example F45, N-[3-chloro-4-[4-(1,1-dimethylpiperidin-1-ium-4-carbonyl)piperazine-1-carbonyl]phenyl]-5-[2,3-difluoro-4-[3-(3-fluorophenyl)-1H-pyrazol-4-yl]phenyl]-1-methyl-imidazole-2-carboxamide; formate]"
19,1100,"Cc1nn(CCn2ccccc2=O)cc1-c1ccc(-c2cnc(C(=O)Nc3ccc(C(=O)N4CCN(C(=O)C5CC[N+](C)(C)CC5)CC4)c(Cl)c3)n2C)c(F)c1F [Example F46, N-[3-chloro-4-[4-(1,1-dimethylpiperidin-1-ium-4-carbonyl)piperazine-1-carbonyl]phenyl]-5-[2,3-difluoro-4-[3-methyl-1-[2-(2-oxo-1-pyridyl)ethyl]pyrazol-4-yl]phenyl]-1-methyl-imidazole-2-carboxamide; formate]"
